The values below come from PMC6628362, “A New Strategy for Glioblastoma Treatment: In Vitro and In Vivo Preclinical Characterization of Si306, a Pyrazolo[3,4-d]Pyrimidine Dual Src/P-Glycoprotein Inhibitor” (Cancers, 2019).

Data set [1] concerns the target Human Serum Albumin (HSA) (Homo sapiens, UniProt P02768). Nature of the data set: Binding fluorimetric assay, HSA. Format: in vitro ADME. On the procedure:
(§1) In order to determine the binding affinity for Si306 and pro-Si306 to HSA (human serum albumin) and AGP (alpha-1-acid glycoprotein), the protein fluorescence has been monitored by spectroscopy. The quantitative analysis was performed using black 96 multiwell plates: in each well, a fixed concentration of HSA or AGP (10 µM in phosphate buffer 1 mM) was added with different amounts of the tested compound (0.1 µM to 500 µM). Plates were gently shacked and after 30 min at room temperature for equilibration, spectra were recorded from 300 to 400 nm, after excitation at 295 nm, by using a Perkin Elmer EnVision Multilabel Reader 2014 spectrofluorimeter. Finally, spectra were acquired with EnVision Manager ver.1.13 software (Walthman, MA, USA). The obtained non fluorescence quenching percentages were plotted against drug concentrations and the relative KD values were calculated using GraphPad software (version 6.0).

Data set [2] is described as follows: Acute toxicity study in mice (single i.v. dose). Format: in vivo, BALB/c mice. On the procedure: Male BALB/c mice (20 ± 2) g, supplied by Harlan Italy S.r.l., San Pietro al Natisone, Udine, Italy, were acclimated at 25 °C and 55% of humidity under natural light/dark conditions for 1 week before the proposed experiments. Animal welfare was routinely checked by veterinarians of the Service for Animal Welfare and all efforts were made to minimize suffering.
The study design includes three groups of five mice each. All mice were injected with compound through the tail vein in a single systemic dose (0.05 mL per dose). The test compound was solubilized in PBS/25% DMSO. The first group was treated with dose levels of 50 mg/kg; the second received a high-dose level of 100 mg/kg, whereas the third was inoculated with the only vehicle as the control. All mice were monitored for survival and the presence of any drug-related adverse effect (local signs of inflammation, weight loss, diarrhea, and behavioral alterations) throughout the experimental period. Mice were sacrificed 4 days after treatment, and liver, kidney, and brain tissue specimens were aseptically removed, fixed in 4% formaldehyde solution, and processed for paraffin embedding. Histopathological changes in tissue specimens were evaluated in 10 randomly selected tissue sections from each organ for all the samples. Sections cut at 2 μm were stained with hematoxylin and eosin (H&E) and analyzed by a pathologist with an optical microscope (Leica, Wetzlar, Germany).

Details of data set [3]: method as in PMID 28650650. To be noted: cited from earlier work.
A further data set concerns the target T1, CYP3A4 (Homo sapiens, UniProt P08684).
T1 construct: Incubations were carried out in a mix containing human liver microsomes (1 mg/mL of protein); from tissue; host or cells: human liver microsomes
The experiment in a line: CYP3A4 inhibition in human liver microsomes (testosterone 6β-hydroxylation). Format: in vitro ADME. The protocol: The inhibition of cytochrome P450 3A4 isoform by Si306 and pro-Si306 was measured by determining its activity on the substrate testosterone.
The activity of CYP3A4 was evaluated by measuring the 6β-hydroxylated testosterone formation (CYP3A4-specific reaction). The amount of 6β-hydroxylated metabolite was assessed in the absence and presence of Si306, pro-Si306 and ketoconazole (testosterone concentration of 100 μM in phosphate buffer 0.025 M, pH 7.4). […] Ketoconazole was used as standard selective inhibitor of CYP3A4 isoenzyme. Incubations were carried out in a mix containing human liver microsomes (1 mg/mL of protein) in phosphate buffer 0.025 M, pH 7.4, NADPH (200 μM) previously solubilized in a MgCl2 48 mM solution. The final incubation volume was 0.25 mL. After a 40 min-incubation period at 37 °C, the reaction was stopped by adding 1 mL of acetonitrile in the presence of corticosterone 2 μM as internal standard. The samples were centrifuged for 20 min at 5000 rpm. Concentrations of testosterone and its metabolite 6β-hydroxytestosterone were assessed by the HPLC method with UV detection. Calibration curve for quantitative analysis of 6β-hydroxytestosterone in the samples was obtained using commercial 6β-hydroxytestosterone purchased from Sigma Aldrich. For the statistical analysis, GraphPad InStat 3.0 (GraphPad Software, San Diego, CA, USA) was used.
Background: Liver microsomes are vesicles of endoplasmic reticulum, rich in cytochrome P450 enzymes.

In a further data set the test system is LN-229. The experiment in a line: MTT cell growth inhibition, LN-229. Format: cell-based, Human. To be noted: LN-229, MTT, n = 3.
The test system of a further data set is U87 cells. Details: method as in PMID 28650650. To be noted: single oral treatment, mice orthotopically injected with U87 cells; cited from earlier work.
The next data set concerns A172. Nature of the data set: Cell viability, A172 (Table S1). Format: cell-based. To be noted: Homo sapiens, A 172; A172, 72 h. On the procedure:
1. Cell Growth Inhibition by Dasatinib, Si306 and Pro-Si306
GB cell lines BT138, T98G and A172 were treated with Si306 and pro-Si306 at concentrations ranging from 1 to 100 µM, or with DMSO as a control. Cell viability was evaluated 72 h after treatment for T98G and A172 cell lines and after 24 h for BT-138. In table S1 the IC50 values are reported.
Table S1. Sensitivity of glioblastoma multiforme (GBM) cells to Si306 and pro-Si306 expressed as IC50 […]
Figure S1. Rho 123 accumulation in U87-TxR cells treated with increasing concentrations of TQ (A), Dex-VER (B), Si306 (C) and pro-Si306 (D).
(1 picture or pasted object on this page, not shown here)

The subject of data set [4] is Alpha-1-acid glycoprotein (AGP). Nature of the data set: Binding fluorimetric assay, AGP. To be noted: 10 µM AGP, fluorescence quenching. Format: in vitro ADME. On the procedure: as §1
The mark [5] stands for this setting: 10 µM HSA, fluorescence quenching.

Sequence of Human Serum Albumin (HSA) (P02768 25-609): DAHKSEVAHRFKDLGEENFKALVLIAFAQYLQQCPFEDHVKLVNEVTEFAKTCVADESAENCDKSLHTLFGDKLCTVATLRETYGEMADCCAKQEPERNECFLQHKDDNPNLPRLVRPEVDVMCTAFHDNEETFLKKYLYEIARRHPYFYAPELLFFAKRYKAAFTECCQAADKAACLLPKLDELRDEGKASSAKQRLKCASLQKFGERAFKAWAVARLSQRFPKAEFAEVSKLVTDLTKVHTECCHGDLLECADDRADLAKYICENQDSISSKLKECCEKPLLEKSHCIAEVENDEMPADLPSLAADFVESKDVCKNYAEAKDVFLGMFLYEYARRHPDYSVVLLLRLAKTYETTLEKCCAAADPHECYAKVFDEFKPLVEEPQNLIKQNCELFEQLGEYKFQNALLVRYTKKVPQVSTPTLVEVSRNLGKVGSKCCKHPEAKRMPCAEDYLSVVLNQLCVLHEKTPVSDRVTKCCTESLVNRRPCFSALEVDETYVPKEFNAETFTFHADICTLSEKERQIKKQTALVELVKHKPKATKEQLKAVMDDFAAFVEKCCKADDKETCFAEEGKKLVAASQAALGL
T1 sequence (P08684 whole entry): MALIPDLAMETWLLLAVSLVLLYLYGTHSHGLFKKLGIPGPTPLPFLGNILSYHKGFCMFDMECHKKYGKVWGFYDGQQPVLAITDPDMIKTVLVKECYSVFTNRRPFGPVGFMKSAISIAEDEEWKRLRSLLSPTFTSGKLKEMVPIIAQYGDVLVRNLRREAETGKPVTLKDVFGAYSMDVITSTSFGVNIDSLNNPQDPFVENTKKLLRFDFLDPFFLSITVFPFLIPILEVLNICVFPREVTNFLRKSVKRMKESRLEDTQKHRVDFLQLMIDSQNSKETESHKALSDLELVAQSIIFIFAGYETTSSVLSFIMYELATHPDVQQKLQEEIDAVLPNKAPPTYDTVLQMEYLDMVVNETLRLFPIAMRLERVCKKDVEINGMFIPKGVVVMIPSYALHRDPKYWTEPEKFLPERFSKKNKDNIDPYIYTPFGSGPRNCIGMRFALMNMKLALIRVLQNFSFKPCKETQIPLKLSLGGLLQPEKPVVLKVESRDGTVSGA

As a reminder, the Kd is the free concentration of one partner at which half of the binding sites on the other are occupied at equilibrium, for simple one-to-one binding. A word on the LD50: it is the dose at which mortality reaches 50%. Low readings indicate a more toxic substance, high ones a less toxic substance. In general, inhibition refers to the share of the control response that was lost under treatment. For orientation: IC50 means the concentration that gives 50% inhibition. Turning to `ClC(Cn1ncc2c(Nc3cccc(Br)c3)nc(SCCN3CCOCC3)nc21)c1ccccc1` (centres unmarked) [Si306], the BMAX in data set [1] (setting [5]) was determined as 61.05 ± 2.8; in data set [4], 88.38 ± 1.8. Also, the Kd in data set [1] (setting [5]) turned out to be 0.35 ± 0.1 µM. For the same compound, the “affinity for albumin, fold greater than pro-Si306” value in data set [1] (HSA) came out at 60 fold. In addition, the “microscopic alterations in liver, kidney and central nervous system” value in data set [2] (50 and 100 mg/kg i.v., 4 days after treatment, H&E) is listed as “No microscopic alterations”. In data set [2] (limit test dose 100 mg/kg, i.v., four days observation), the treatment-related mortality entry is reported as “did not produce treatment-related mortality”. Also, the LD50 at 4 days in data set [2] (male, BALB/c, mouse, in vivo, iv, single dose, mice) was > 100 mg/kg. Further, in data set [2] (up to 100 mg/kg i.v., four days observation), the “behavior (apathy, hyperactivity, vomiting, diarrhea, morbidity)” value is “no significant changes occurred in the behavior”. In addition, in data set [2] (up to 100 mg/kg i.v., recorded daily), the body weights result is on record as “no significant changes”. Besides, the solubility result in data set [3] is “very poorly water soluble”. At CYP3A4 (pH 7.4, probe testosterone 100 μM (6β-hydroxylation), highest concentration used (1–50 μM range), not significative, read-out: maximum inhibition of CYP3A4 (testosterone 6β-hydroxylation)), the inhibition at 40 min, 50 μM stood at 20%. Besides, the “interaction with CYP3A4” value on CYP3A4 (up to 50 μM) is on record as “do not interact with CYP3A4”. For the same compound, the IC50 with LN-229 (Homo sapiens, LN-229, 72 h) was 8 µM; with LN-229 (72 h), 8.01 ± 0.574 µM; with A172 it was 1.69 ± 0.6 µM. The prolongation of survival in the data set with U87 cells is reported as 30%. Besides, in data set [4] (alpha-1-acid glycoprotein (10 µM) in phosphate buffer), the Kd at 30 min came out at 11.5 ± 1 µM.
